{"source": "PubChem BioAssay AID288", "about": "(DTP/NCI, 2004)", "system": "BDF1 mice, M5076 sarcoma s.c., survival/tumor T/C", "experiment": "NCI In Vivo Anticancer Drug Screen. Data for tumor model Sarcoma M5076 (subcutaneous) in B6D2F1 (BDF1) mice", "experimental": "The antitumor activity of compounds was measured in mice bearing transplantable tumors. Survival or tumor size were measured and the results are expressed as the measurement made in the treated group (T) divided by the measurement made in the vehicle treated control group (C). The tumor model used in this assay is Sarcoma M5076 (subcutaneous) in B6D2F1 (BDF1) mice", "note": "Results filed as inconclusive are left out."}
{"smiles": "Nc1ccn(C2OC3COC2C3O)c(=O)n1", "note": "(stereo not drawn)", "values": [{"measurement": "T/C", "setting": "endpoint: median survival time, dose: 50.0 mg/kg/injection, schedule: Q01DX009 (ip), vehicle: saline, higher = longer survival", "value": "89 % of control"}, {"measurement": "T/C", "setting": "endpoint: median survival time, dose: 100.0 mg/kg/injection, schedule: Q01DX009 (ip), vehicle: saline, higher = longer survival", "value": "110 % of control"}, {"measurement": "T/C", "setting": "endpoint: median survival time, dose: 200.0 mg/kg/injection, schedule: Q01DX009 (ip), vehicle: saline, higher = longer survival", "value": "102 % of control"}, {"measurement": "T/C", "setting": "endpoint: median tumor weight (est.), dose: 100.0 mg/kg/injection, schedule: Q01DX009 (ip), vehicle: saline, higher = larger tumour", "value": "65 % of control"}, {"measurement": "T/C", "setting": "endpoint: median tumor weight (est.), dose: 200.0 mg/kg/injection, schedule: Q01DX009 (ip), vehicle: saline, higher = larger tumour", "value": "92 % of control"}]}
{"smiles": "Nc1n[n+](-c2ccc(Cl)cc2)no1", "values": [{"measurement": "T/C", "setting": "endpoint: median survival time, dose: 25.0 mg/kg/injection, schedule: Q04DX003 (ip), vehicle: water, higher = longer survival", "value": "99 % of control"}, {"measurement": "T/C", "setting": "endpoint: median survival time, dose: 50.0 mg/kg/injection, schedule: Q04DX003 (ip), vehicle: water, higher = longer survival", "value": "100 % of control"}]}
{"smiles": "NC(=O)c1csc(C2OC(CO)C(O)C2O)n1", "note": "(stereo not drawn)", "values": [{"measurement": "T/C", "setting": "endpoint: median survival time, dose: 9.38 mg/kg/injection, schedule: Q01DX009 (ip), vehicle: saline, higher = longer survival", "value": "103 % of control"}, {"measurement": "T/C", "setting": "endpoint: median survival time, dose: 18.8 mg/kg/injection, schedule: Q01DX009 (ip), vehicle: saline, higher = longer survival", "value": "97 % of control"}, {"measurement": "T/C", "setting": "endpoint: median survival time, dose: 37.5 mg/kg/injection, schedule: Q01DX009 (ip), vehicle: saline, higher = longer survival", "value": "93 % of control"}, {"measurement": "T/C", "setting": "endpoint: median survival time, dose: 75.0 mg/kg/injection, schedule: Q01DX009 (ip), vehicle: saline, higher = longer survival", "value": "94 % of control"}, {"measurement": "T/C", "setting": "endpoint: median survival time, dose: 150.0 mg/kg/injection, schedule: Q01DX009 (ip), vehicle: saline, higher = longer survival", "value": "97 % of control"}, {"measurement": "T/C", "setting": "endpoint: median survival time, dose: 300.0 mg/kg/injection, schedule: Q01DX009 (ip), vehicle: saline, higher = longer survival", "value": "97 % of control"}, {"measurement": "T/C", "setting": "endpoint: median survival time, dose: 600.0 mg/kg/injection, schedule: Q01DX009 (ip), vehicle: saline, higher = longer survival", "value": "101 % of control"}, {"measurement": "T/C", "setting": "endpoint: median tumor weight (est.), dose: 9.38 mg/kg/injection, schedule: Q01DX009 (ip), vehicle: saline, higher = larger tumour", "value": "95 % of control"}, {"measurement": "T/C", "setting": "endpoint: median tumor weight (est.), dose: 18.8 mg/kg/injection, schedule: Q01DX009 (ip), vehicle: saline, higher = larger tumour", "value": "95 % of control"}, {"measurement": "T/C", "setting": "endpoint: median tumor weight (est.), dose: 75.0 mg/kg/injection, schedule: Q01DX009 (ip), vehicle: saline, higher = larger tumour", "value": "100 % of control"}, {"measurement": "T/C", "setting": "endpoint: median tumor weight (est.), dose: 150.0 mg/kg/injection, schedule: Q01DX009 (ip), vehicle: saline, higher = larger tumour", "value": "104 % of control"}, {"measurement": "T/C", "setting": "endpoint: median tumor weight (est.), dose: 300.0 mg/kg/injection, schedule: Q01DX009 (ip), vehicle: saline, higher = larger tumour", "value": "91 % of control"}]}
{"smiles": "COc1ccc(/C=C2\\SC(=O)N(C)C2=O)cc1OC", "values": [{"measurement": "T/C", "setting": "endpoint: median survival time, dose: 50.0 mg/kg/injection, schedule: Q01DX009 (ip), vehicle: saline with Tween-80, higher = longer survival", "value": "93 % of control"}, {"measurement": "T/C", "setting": "endpoint: median survival time, dose: 100.0 mg/kg/injection, schedule: Q01DX009 (ip), vehicle: saline with Tween-80, higher = longer survival", "value": "100 % of control"}, {"measurement": "T/C", "setting": "endpoint: median survival time, dose: 200.0 mg/kg/injection, schedule: Q01DX009 (ip), vehicle: saline with Tween-80, higher = longer survival", "value": "93 % of control"}, {"measurement": "T/C", "setting": "endpoint: median tumor weight (est.), dose: 50.0 mg/kg/injection, schedule: Q01DX009 (ip), vehicle: saline with Tween-80, higher = larger tumour", "value": "104 % of control"}, {"measurement": "T/C", "setting": "endpoint: median tumor weight (est.), dose: 100.0 mg/kg/injection, schedule: Q01DX009 (ip), vehicle: saline with Tween-80, higher = larger tumour", "value": "110 % of control"}, {"measurement": "T/C", "setting": "endpoint: median tumor weight (est.), dose: 200.0 mg/kg/injection, schedule: Q01DX009 (ip), vehicle: saline with Tween-80, higher = larger tumour", "value": "77 % of control"}]}
{"smiles": "CN(C)c1nc(N(C)C)nc(N(C)C)n1", "values": [{"measurement": "T/C", "setting": "endpoint: median survival time, dose: 44.0 mg/kg/injection, schedule: Q04DX006 (ip), vehicle: saline with Tween-80, higher = longer survival", "value": "97 % of control"}, {"measurement": "T/C", "setting": "endpoint: median survival time, dose: 88.0 mg/kg/injection, schedule: Q04DX006 (ip), vehicle: saline with Tween-80, higher = longer survival", "value": "108 % of control"}, {"measurement": "T/C", "setting": "endpoint: median survival time, dose: 176.0 mg/kg/injection, schedule: Q02DX033 (ip), vehicle: saline with Tween-80, higher = longer survival", "value": "189 % of control"}, {"measurement": "T/C", "setting": "endpoint: median survival time, dose: 176.0 mg/kg/injection, schedule: Q04DX006 (ip), vehicle: saline with Tween-80, higher = longer survival", "value": "120 % of control"}, {"measurement": "T/C", "setting": "endpoint: median survival time, dose: 352.0 mg/kg/injection, schedule: Q04DX006 (ip), vehicle: saline with Tween-80, higher = longer survival", "value": "112 % of control"}, {"measurement": "T/C", "setting": "endpoint: median tumor weight (est.), dose: 30.0 mg/kg/injection, schedule: Q02DX011 (ip), vehicle: saline with Tween-80, higher = larger tumour", "value": "110 % of control"}, {"measurement": "T/C", "setting": "endpoint: median tumor weight (est.), dose: 60.0 mg/kg/injection, schedule: Q02DX011 (ip), vehicle: saline with Tween-80, higher = larger tumour", "value": "54 % of control"}, {"measurement": "T/C", "setting": "endpoint: median tumor weight (est.), dose: 120.0 mg/kg/injection, schedule: Q02DX011 (ip), vehicle: saline with Tween-80, higher = larger tumour", "value": "17 % of control"}]}
